We go through five molecules from patent publication US4434159A, “Pharmaceutical composition for intrarectal administration, and suppository prepared therefrom” (Teijin Limited, priority 1980, dated 1984).

Series [1] relates to serum calcium level. The experiment in a line: Effect of the amount of the absorption aid on the decrease of serum calcium level (calcitonin suppositories, rats). In kind it is in vivo. To be noted: intrarectal, SD male rats, one hour. The protocol: (a) About 14 g of each of the absorption aids shown in Table 1 was added to 186 g of cacao butter, and they were well mixed by a grinder. Salmon caltintonin or [Asu^1,7 ]-eel calcitonin was added gradually and mixed to form a homogeneous composition. The composition was slightly heated to make it flowable, and about 80 mg of it was cast into a suppository container made for rats, and allowed to solidify by cooling to obtain a rat suppository having a diameter of about 3 mm and a length of about 6 mm. The suppository contained 0.7 MRC units of calcitonin.
The suppository was administered to the rectum of each of […] male rats (body weight about 200 g) and the concentration of calcium in the serum was measured 1, 2, 3, and 5 hours later to examine the absorbabillity of calcitonin from the rectum. The calcium level in the serum was measured by using a calcium level measuring kit of Yatoron Co., and five rats were used for each blood withdrawal. The results are shown in Table 1 as the decrease (%) of the serum calcium level from that before administration of the calcitonin-containing suppository.
(b) Suppositories containing 0.7 MRC unit of [Aus^1.7 ]-eel calcitonin per 80 mg were prepared in the same way as in (a) above by including each of the absorption aids shown in Table 2 in the amounts indicated. Each of the suppositories was intrarectally administered to SD male rats in the same way as in (a) above, and the decrease (%) of the serum calcium level was measured one hour after the administration.

In series [2] the test system is mucous membrane of the eyes (cornea, iris, conjunctiva). In words: Draize eye irritation test of absorption aids in rabbits. The procedure:
Nothing was applied to the other eye. Thus, irritation of the absorption aid to the mucous membrane of the eyes were examined, and scores were calculated in accordance with the Draize's eye irritation evaluating method [Association of Foods, Drugs and Cosmetics" (1957)].

Setting [3] is: absorption aid 0.8% of suppository with 0.7 MRC unit [Aus^1.7]-eel calcitonin per 80 mg.
The mark [4] stands for this setting: absorption aid 2.4% of suppository with 0.7 MRC unit [Aus^1.7]-eel calcitonin per 80 mg.
Where [5] appears, read: 2.4 w/v % soln, 1 hours after application.
The mark [6] stands for this setting: 2.4 w/v % soln, 3 hours after application.
Where [7] appears, read: 2.4 w/v % soln, 6 hours after application.
[8] abbreviates: 2.4 w/v % soln, 24 hours after application.
[9] abbreviates: 2.4 w/v % soln, 48 hours after application.
[10] abbreviates: 2.4 w/v % soln, 72 hours after application.
The mark [11] stands for this setting: 2.4 w/v % soln, 96 hours after application.
Setting [12] is: 2.4 w/v % soln, 168 hours after application.
[13] abbreviates: aqueous solution applied dropwise to rabbit eye, Draize evaluation.
Where [14] appears, read: absorption aid 7.0% of suppository with 0.7 MRC unit [Aus^1.7]-eel calcitonin per 80 mg.
[15] abbreviates: 0.1 w/v % soln, 1 hours after application.
[16] abbreviates: 0.1 w/v % soln, 3 hours after application.
The mark [17] stands for this setting: 0.1 w/v % soln, 6 hours after application.
Setting [18] is: 0.1 w/v % soln, 24 hours after application.
Where [19] appears, read: 0.1 w/v % soln, 48 hours after application.
Setting [20] is: 0.1 w/v % soln, 72 hours after application.
Where [21] appears, read: 0.1 w/v % soln, 96 hours after application.
[22] abbreviates: 0.1 w/v % soln, 168 hours after application.

Each structure is given as a SMILES string.

As for `N[C@@H](CCC(=O)O)C(=O)O` [L-Glutamic acid], the figures for the “Decrease of the serum calcium level (%)” value in series [1] (setting [3]), in series [1] (setting [4]) and in series [1] (absorption aid 15.0% of suppository with 0.7 MRC unit [Aus^1.7]-eel calcitonin per 80 mg) were 11.5%, 17.2% and 28.1%, respectively. Also, the “Primary irritation scores on the eyes: Conjunctiva” value in series [2] (setting [5]) was determined as 3.3; in series [2] (setting [6]), 2.0; in series [2] (setting [7]), 2.0; in series [2] (setting [8]), 0; in series [2] (setting [9]), 0; in series [2] (setting [10]), 0. The “Primary irritation scores on the eyes: Conjunctiva” value in series [2] (setting [11]) and in series [2] (setting [12]) was 0 each time. Further, the “Primary irritation scores on the eyes: Cornea” value in series [2] (setting [5]), in series [2] (setting [6]), in series [2] (setting [7]), in series [2] (setting [8]), in series [2] (setting [9]) and in series [2] (setting [10]) was 0 throughout. Moreover, the “Primary irritation scores on the eyes: Cornea” value in series [2] (setting [11]) and in series [2] (setting [12]) was 0 in each case. Also, the “Primary irritation scores on the eyes: Iris” value in series [2] (setting [5]), in series [2] (setting [6]), in series [2] (setting [7]), in series [2] (setting [8]), in series [2] (setting [9]) and in series [2] (setting [10]) was 0 throughout. In addition, the “Primary irritation scores on the eyes: Iris” value in series [2] (setting [11]) and in series [2] (setting [12]) was 0 throughout. The “Primary irritation scores on the eyes: Total” value was 3.3 in series [2] (setting [5]); 2.0 in series [2] (setting [6]); 2.0 in series [2] (setting [7]); 0 in series [2] (setting [8]); 0 in series [2] (setting [9]); 0 in series [2] (setting [10]). For the same molecule, the “Primary irritation scores on the eyes: Total” value in series [2] (setting [11]) and in series [2] (setting [12]) was 0 in each case. Further, the “irritation to the mucous membrane of the eyes (in words)” value (“irritation to the mucous membrane” below) in series [2] (setting [13]) was “almost no irritation”.
In the case of `CC(=O)Oc1ccccc1C(=O)O` [Acetylsalicylic acid, reference compound], in series [2] (rabbit, in vivo), the “Primary irritation scores on the eyes: Cornea” value was 0, the “Primary irritation scores on the eyes: Iris” value was found to be 0 and the “irritation to the mucous membrane” value is “almost no irritation”.
Take `O=C1CCC(C(=O)O)N1` (racemic) [DL-Pyroglutamic acid]: the results for the “Decrease of the serum calcium level (%)” value in series [1] (setting [3]), in series [1] (setting [4]) and in series [1] (setting [14]) were 15.2%, 20.1% and 31.0%, respectively. Besides, in series [2] (rabbit, in vivo), the “Primary irritation scores on the eyes: Cornea” value came to 0. Further, the “Primary irritation scores on the eyes: Iris” value in series [2] (rabbit, in vivo) is 0. Also, in series [2] (rabbit, in vivo), the “irritation to the mucous membrane” value is given as “almost no irritation”.
Take `CCCCCCCCCCCCOS(=O)(=O)[O-].[Na+]` [Sodium Laurylsulfate, reference compound]: the “Primary irritation scores on the eyes: Conjunctiva” value came out at 4.0 in series [2] (setting [15]); 4.0 in series [2] (setting [16]); 0 in series [2] (setting [17]); 0 in series [2] (setting [18]); 0 in series [2] (setting [19]); 0 in series [2] (setting [20]). Besides, the “Primary irritation scores on the eyes: Conjunctiva” value was determined as 0 in series [2] (setting [21]); 0 in series [2] (setting [22]); 13.3 in series [2] (setting [5]); 12.7 in series [2] (setting [6]); 11.3 in series [2] (setting [7]); 8.0 in series [2] (setting [8]). Besides, the “Primary irritation scores on the eyes: Conjunctiva” value is 4.0 in series [2] (setting [9]), 2.7 in series [2] (setting [10]), 2.0 in series [2] (setting [11]) and 0.7 in series [2] (setting [12]). The “Primary irritation scores on the eyes: Cornea” value in series [2] (setting [15]), in series [2] (setting [16]), in series [2] (setting [17]), in series [2] (setting [18]), in series [2] (setting [19]) and in series [2] (setting [20]) was 0 in each case. Also, the “Primary irritation scores on the eyes: Cornea” value in series [2] (setting [21]), in series [2] (setting [22]), in series [2] (setting [5]), in series [2] (setting [6]), in series [2] (setting [7]) and in series [2] (setting [8]) was 0 in each case. Also, the “Primary irritation scores on the eyes: Cornea” value in series [2] (setting [9]), in series [2] (setting [10]), in series [2] (setting [11]) and in series [2] (setting [12]) was 0 each time. The “Primary irritation scores on the eyes: Iris” value in series [2] (setting [15]), in series [2] (setting [16]), in series [2] (setting [17]), in series [2] (setting [18]), in series [2] (setting [19]) and in series [2] (setting [20]) was 0 throughout. Also, the “Primary irritation scores on the eyes: Iris” value in series [2] (setting [21]) was found to be 0; in series [2] (setting [22]), 0; in series [2] (setting [5]) it was 5.0; in series [2] (setting [6]), 0; in series [2] (setting [7]), 0; in series [2] (setting [8]), 0. For the same molecule, the “Primary irritation scores on the eyes: Iris” value in series [2] (setting [9]), in series [2] (setting [10]), in series [2] (setting [11]) and in series [2] (setting [12]) was 0 each time. Further, the “Primary irritation scores on the eyes: Total” value in series [2] (setting [15]) worked out at 4.0; in series [2] (setting [16]), 4.0; in series [2] (setting [17]) it was 0; in series [2] (setting [18]) it was 0; in series [2] (setting [19]) it was 0; in series [2] (setting [20]), 0. The “Primary irritation scores on the eyes: Total” value in series [2] (setting [21]) is on record as 0; in series [2] (setting [22]), 0; in series [2] (setting [5]), 18.3; in series [2] (setting [6]) it was 12.7; in series [2] (setting [7]), 11.3; in series [2] (setting [8]), 8.0. Also, the “Primary irritation scores on the eyes: Total” value stood at 4.0 in series [2] (setting [9]), 2.7 in series [2] (setting [10]), 2.0 in series [2] (setting [11]) and 0.7 in series [2] (setting [12]). In series [2] (setting [13]), the “irritation to the mucous membrane” value is “fairly strong irritation”.
Regarding `O=C([O-])c1ccccc1O.[Na+]` [Sodium salicylate, reference compound], the “Decrease of the serum calcium level (%)” value in series [1] (setting [3]) is recorded as 11.4%; in series [1] (setting [4]), 20.3%; in series [1] (setting [14]) it was 29.6%.
